Measurements reported in ChEMBL document CHEMBL1649404, “Synthesis and biological evaluation of new 4β-anilino-4'-O-demethyl-4-desoxypodophyllotoxin derivatives as potential antitumor agents” (Eur J Med Chem, 2011).

Tests used:
[1] = tested on: KB; experiment: Cytotoxicity against human KB cells after 72 hrs by MTT assay; assay type: functional, cell-based
[2] = Cytotoxicity against human KB/VCR cells after 72 hrs by MTT assay; assay type: functional, cell-based
[3] = tested on: A549; experiment: Cytotoxicity against human A549 cells after 72 hrs by MTT assay; assay type: functional, cell-based; settings: A549, 72 h
[4] = Cytotoxicity against human 95-D cells after 72 hrs by MTT assay; assay type: functional, cell-based
[5] = Anticancer activity against human 95-D cells xenografted in BALB/c mouse at 10 mg/kg administered intramuscularly every other day for 20 days measured post last dose relative to control; assay type: functional; settings: route intramuscular
[6] = Anticancer activity against human 95-D cells xenografted in BALB/c mouse assessed as inhibition of tumor growth at 10 mg/kg administered intramuscularly every other day for 20 days measured post last dose; assay type: functional; settings: im, 480 h, route intramuscular
[7] = tested on: Mus musculus; experiment: Toxicity in BALB/c mouse xenografted with human 95-D cells assessed as body weight at 10 mg/kg administered intramuscularly every other day for 20 days measured post last dose (reference value: 21.6 +/- 0.6 gm); assay type: organism-based; set-up: dose 10 mg/kg, route intramuscular; settings: in vivo, im, 480 h
[8] = Anticancer activity against human 95-D cells xenografted in BALB/c mouse at 50 mg/kg, ig administered 2 to 3 times a week for 20 days measured post last dose relative to control; assay type: functional; settings: route intragastric
[9] = Anticancer activity against human 95-D cells xenografted in BALB/c mouse assessed as inhibition of tumor growth at 50 mg/kg, ig administered 2 to 3 times a week for 20 days measured post last dose; assay type: functional; settings: po, 480 h, route intragastric
[10] = tested on: Mus musculus; experiment: Toxicity in BALB/c mouse xenografted with human 95-D cells assessed as body weight at 50 mg/kg, ig administered 2 to 3 times a week for 20 days measured post last dose (reference value: 21.6 +/- 0.6 gm); assay type: organism-based; set-up: dose 50 mg/kg, route intragastric; settings: in vivo, po, 480 h

Row | SMILES | IC50 [1] | IC50 [2] | IC50 [3] | IC50 [4] | Activity [5] | inhibition in vivo at 10 mg/kg [6] | Activity [7] | Activity [8] | inhibition in vivo at 50 mg/kg [9] | Activity [10]
1 | COc1cc([C@@H]2c3cc4c(cc3[C@@H](Nc3cccc(CN5CCCCC5)c3)[C@H]3COC(=O)[C@H]23)OCO4)cc(OC)c1O | 0.97 µM | 3.44 µM | 0.5 µM | 0.2 µM | – | – | – | – | – | –
2 | COc1cc([C@@H]2c3cc4c(cc3[C@@H](Nc3ccc(CCN5CCCC5)cc3)[C@H]3COC(=O)[C@H]23)OCO4)cc(OC)c1O | 0.21 µM | 1.57 µM | 0.24 µM | 0.036 µM | – | – | – | – | – | –
3 | COc1cc([C@@H]2c3cc4c(cc3[C@@H](Nc3ccc(CCN5CCOCC5)cc3)[C@H]3COC(=O)[C@H]23)OCO4)cc(OC)c1O | 0.78 µM | 1.27 µM | 1.94 µM | 11.5 µM | – | – | – | – | – | –
4 | CCN(CC)CCc1ccc(N[C@@H]2c3cc4c(cc3[C@@H](c3cc(OC)c(O)c(OC)c3)[C@H]3C(=O)OC[C@@H]32)OCO4)cc1 | 0.45 µM | 1.53 µM | 0.4 µM | 9.84 µM | – | – | – | – | – | –
5 | COc1cc([C@@H]2c3cc4c(cc3[C@@H](Nc3ccc(CCN5CCCCC5)cc3)[C@H]3COC(=O)[C@H]23)OCO4)cc(OC)c1O | 4.21 µM | 19.1 µM | 13.4 µM | 17.2 µM | – | – | – | – | – | –
6 | COc1cc([C@@H]2c3cc4c(cc3[C@@H](Nc3ccc(CCN(C)C)cc3)[C@H]3COC(=O)[C@H]23)OCO4)cc(OC)c1O | 2.42 µM | 3.95 µM | 19 µM | 17.1 µM | – | – | – | – | – | –
7 | COc1cc([C@@H]2c3cc4c(cc3[C@@H](Nc3ccc(CCN(C(C)C)C(C)C)cc3)[C@H]3COC(=O)[C@H]23)OCO4)cc(OC)c1O | 0.44 µM | 2.2 µM | 0.49 µM | 10 µM | – | – | – | – | – | –
8 | COc1cc([C@@H]2c3cc4c(cc3[C@@H](Nc3cccc(CCN5CCCC5)c3)[C@H]3COC(=O)[C@H]23)OCO4)cc(OC)c1O | 0.39 µM | 1.85 µM | 3.91 µM | 1.17 µM | – | – | – | – | – | –
9 | COc1cc([C@@H]2c3cc4c(cc3[C@@H](Nc3cccc(CCN5CCOCC5)c3)[C@H]3COC(=O)[C@H]23)OCO4)cc(OC)c1O | 0.48 µM | 2.09 µM | 5.1 µM | 14.8 µM | – | – | – | – | – | –
10 | CCN(CC)CCc1cccc(N[C@@H]2c3cc4c(cc3[C@@H](c3cc(OC)c(O)c(OC)c3)[C@H]3C(=O)OC[C@@H]32)OCO4)c1 | 0.77 µM | 3.87 µM | 7.49 µM | 14.6 µM | – | – | – | – | – | –
11 | COc1cc([C@@H]2c3cc4c(cc3[C@@H](Nc3cccc(CCN5CCCCC5)c3)[C@H]3COC(=O)[C@H]23)OCO4)cc(OC)c1O | 0.43 µM | 1.78 µM | 2.75 µM | 7.4 µM | – | – | – | – | – | –
12 | COc1cc([C@@H]2c3cc4c(cc3[C@@H](Nc3ccc(CC(=O)N5CCCC5)cc3)[C@H]3COC(=O)[C@H]23)OCO4)cc(OC)c1O | 1.52 µM | 2.2 µM | 15.9 µM | > 50 µM | – | – | – | – | – | –
13 | COc1cc([C@@H]2c3cc4c(cc3[C@@H](Nc3ccc(CC(=O)N5CCCCC5)cc3)[C@H]3COC(=O)[C@H]23)OCO4)cc(OC)c1O | 0.4 µM | 2.33 µM | 5.2 µM | 25.8 µM | – | – | – | – | – | –
14 | CCN(CC)C(=O)Cc1cccc(N[C@@H]2c3cc4c(cc3[C@@H](c3cc(OC)c(O)c(OC)c3)[C@H]3C(=O)OC[C@@H]32)OCO4)c1 | 0.42 µM | 27.2 µM | 4.78 µM | > 50 µM | – | – | – | – | – | –
15 | COc1cc([C@@H]2c3cc4c(cc3[C@@H](Nc3ccc(OCCO)cc3)[C@H]3COC(=O)[C@H]23)OCO4)cc(OC)c1O | 2.88 µM | 6.51 µM | 4.54 µM | 4.13 µM | 45.4% | 37.5% | 17 g | – | – | –
16 | COc1cc([C@@H]2c3cc4c(cc3[C@@H](Nc3ccc(COCCO)cc3)[C@H]3COC(=O)[C@H]23)OCO4)cc(OC)c1O | 3.12 µM | 7.39 µM | 5.11 µM | 0.55 µM | – | – | – | – | – | –

Row | SMILES | IC50 [1] | IC50 [2] | IC50 [3] | IC50 [4] | Activity [5] | inhibition in vivo at 10 mg/kg [6] | Activity [7] | Activity [8] | inhibition in vivo at 50 mg/kg [9] | Activity [10]
17 | COc1cc([C@@H]2c3cc4c(cc3[C@@H](Nc3ccc(COCCCO)cc3)[C@H]3COC(=O)[C@H]23)OCO4)cc(OC)c1O | 6 µM | 5.08 µM | 7.45 µM | 12 µM | – | – | – | – | – | –
18 | COc1cc([C@@H]2c3cc4c(cc3[C@@H](Nc3ccc(COCCCCO)cc3)[C@H]3COC(=O)[C@H]23)OCO4)cc(OC)c1O | 6.6 µM | 9.55 µM | 8.5 µM | 20.3 µM | – | – | – | – | – | –
19 | COc1ccc(C(=O)Nc2ccc(N[C@@H]3c4cc5c(cc4[C@@H](c4cc(OC)c(O)c(OC)c4)[C@H]4C(=O)OC[C@@H]43)OCO5)cc2)cc1 | 6.76 µM | 9.28 µM | 3.41 µM | 0.44 µM | – | – | – | – | – | –
20 | COc1cc([C@@H]2c3cc4c(cc3[C@@H](Nc3ccc(NC(=O)c5ccc(F)cc5)cc3)[C@H]3COC(=O)[C@H]23)OCO4)cc(OC)c1O | 2.91 µM | 5.31 µM | 1.56 µM | 1.08 µM | – | – | – | – | – | –
21 | COc1cc([C@@H]2c3cc4c(cc3[C@@H](Nc3ccc(NC(=O)c5ccc(OC(C)=O)cc5)cc3)[C@H]3COC(=O)[C@H]23)OCO4)cc(OC)c1O | 1.91 µM | 8.48 µM | 2.68 µM | 0.42 µM | – | – | – | 46.3% | 57.3% | 16.8 g
22 | COc1cc([C@@H]2c3cc4c(cc3[C@@H](Nc3ccc(NC(=O)c5ccc([N+](=O)[O-])cc5)cc3)[C@H]3COC(=O)[C@H]23)OCO4)cc(OC)c1O | > 50 µM | 13.7 µM | 11 µM | 3.41 µM | – | – | – | – | – | –
23 | COc1cc([C@@H]2c3cc4c(cc3[C@@H](Nc3ccc(NC(=O)CCc5ccccc5)cc3)[C@H]3COC(=O)[C@H]23)OCO4)cc(OC)c1O | 6.88 µM | 3.7 µM | 3.31 µM | 1.15 µM | 62.4% | 9.2% | 20.2 g | – | – | –
24 | COc1cc([C@@H]2c3cc4c(cc3[C@@H](Nc3ccc(NC(=O)CCc5ccccc5[N+](=O)[O-])cc3)[C@H]3COC(=O)[C@H]23)OCO4)cc(OC)c1O | 6.69 µM | 5.3 µM | 8.43 µM | 0.41 µM | – | – | – | – | – | –
25 | COc1cc([C@@H]2c3cc4c(cc3[C@@H](Nc3ccc(NC(=O)/C=C/c5ccccc5)cc3)[C@H]3COC(=O)[C@H]23)OCO4)cc(OC)c1O | 6.53 µM | 2.8 µM | > 50 µM | 1.25 µM | – | – | – | – | – | –
26 | COc1ccc(CCC(=O)Nc2ccc(N[C@@H]3c4cc5c(cc4[C@@H](c4cc(OC)c(O)c(OC)c4)[C@H]4C(=O)OC[C@@H]43)OCO5)cc2)cc1 | > 50 µM | 3.08 µM | > 50 µM | 1.23 µM | – | – | – | – | – | –
27 | COc1cc([C@@H]2c3cc4c(cc3[C@@H](Nc3ccc(NC(=O)c5ccc(Br)cc5)cc3)[C@H]3COC(=O)[C@H]23)OCO4)cc(OC)c1O | 8.75 µM | 5.72 µM | 18.9 µM | 1.66 µM | – | – | – | – | – | –
28 | COc1cc([C@@H]2c3cc4c(cc3[C@@H](Nc3ccc(NC(=O)c5ccc(Cl)cc5)cc3)[C@H]3COC(=O)[C@H]23)OCO4)cc(OC)c1O | 22.1 µM | 13.1 µM | 19.5 µM | 6.56 µM | – | – | – | – | – | –
29 | COc1cc([C@@H]2c3cc4c(cc3[C@@H](N(C(=O)c3ccc([N+](=O)[O-])cc3)c3ccc(NC(=O)c5ccc([N+](=O)[O-])cc5)cc3)[C@H]3COC(=O)[C@H]23)OCO4)cc(OC)c1O | > 50 µM | > 50 µM | > 50 µM | 15.7 µM | – | – | – | – | – | –
30 | COc1cc([C@@H]2c3cc4c(cc3[C@@H](N(C(=O)c3ccc(Cl)cc3)c3ccc(NC(=O)c5ccc(Cl)cc5)cc3)[C@H]3COC(=O)[C@H]23)OCO4)cc(OC)c1O | > 50 µM | 14.2 µM | > 50 µM | 19.6 µM | – | – | – | – | – | –
31 | COc1cc([C@@H]2c3cc4c(cc3[C@@H](O[C@@H]3O[C@@H]5CO[C@@H](C)O[C@H]5[C@H](O)[C@H]3O)[C@H]3COC(=O)[C@H]23)OCO4)cc(OC)c1O [ETOPOSIDE] | 4.61 µM | 83.4 µM | 2.56 µM | 20.2 µM | – | – | – | – | – | –
